Results as given in patent US10172957B2, “Acid-labile lipophilic prodrugs of cancer chemotherapeutic agents” (priority 2011, dated 2019).

Test system: SK-N-AS cells (MDR− Neuroblastoma)
Test: MTS proliferation assay using SK-N-AS cells
Assay type: cell-based
Conditions: Homo sapiens, SK-N-AS, read-out: IC50 in SK-N-AS
Protocol: SK-N-AS cells were plated in appropriate growth medium at 5×10^3 per well in 100 μL in 96 well tissue culture plates, Falcon, one plate for each drug to be tested. Column 1 was blank; it contained medium, but no cells. The plates were incubated overnight at 37° C. in 5% CO2 to allow attachment.
Drug diluted in culture media was added to the cells at a concentration of 0.005 nM to 10 μM, in quadruplicate. After 48-72 hours of drug exposure, the MTS agent was added to all wells and incubated 1-6 hrs (37° C., 5% CO2), depending on cell type, as per CellTiter 96® AQueous Non-Radioactive Cell Proliferation Assay (MTS), Promega. Plates were processed using a Bio-Tek Synergy HT Multi-detection microtiter plate reader at 490 nanometer wavelength and data were processed with KC4V.3 software. Data plots of drug concentration vs. absorbance were plotted and the concentration resulting in 50% inhibition (IC50) was extrapolated for each of the tested compounds.
As summarized in Table 1, the IC50 value for each tested compound in the SK-N-AS cell line was determined. The clinical comparator drug, paclitaxel, was included in the experiment to allow comparison of the results of the candidate compounds to a clinically relevant standard in the taxane class.

## CCCCCCCCCCCCCCCC1OCC(COC(=O)O[C@@H]2C(=O)C=C(C)[C@@H]3C[C@H]4OC(=O)C(OC(=O)CC(O)(C(C)C)C(C)C)C5[C@@H](C)[C@@H](O)[C@@]6(O)OC[C@@]54C6[C@@]23C)O1 (stereo partly shown) [ART 488]
  IC50: 0.33 ± 0.1 nM
